The target of assay [1] is T1, Aurora kinase C (Homo sapiens) (UniProt Q9UQB9).
T1 sequence (whole entry): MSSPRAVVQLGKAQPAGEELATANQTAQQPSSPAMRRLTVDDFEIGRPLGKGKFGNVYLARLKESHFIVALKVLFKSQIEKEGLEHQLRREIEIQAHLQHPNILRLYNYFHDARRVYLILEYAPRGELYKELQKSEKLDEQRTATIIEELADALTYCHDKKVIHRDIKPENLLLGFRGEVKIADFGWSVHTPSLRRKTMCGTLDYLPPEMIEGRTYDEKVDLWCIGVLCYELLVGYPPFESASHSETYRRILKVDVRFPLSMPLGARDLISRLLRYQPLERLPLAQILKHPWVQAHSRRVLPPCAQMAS
In words: Inhibition of human Aurora C using H-LRRASLG as substrate at 1 uM in presence of 32P-ATP by Hotspot assay relative to control; values are per cent of control.

The target in assay [2] is Ephrin type-A receptor 2 (Homo sapiens) (UniProt P29317). Put plainly: Inhibition of human EPHA2 using poly[Glu:Tyr] (4:1) as substrate at 1 uM in presence of 32P-ATP by Hotspot assay relative to control; values are per cent of control.
In assay [3] the target is TGF-beta receptor type-2 (Homo sapiens) (UniProt P37173). Put plainly: Inhibition of human TGFBR2 using myelin basic protein as substrate at 1 uM in presence of 32P-ATP by Hotspot assay relative to control; values are per cent of control.
Sequence of TGF-beta receptor type-2 (Homo sapiens) (P37173 whole entry): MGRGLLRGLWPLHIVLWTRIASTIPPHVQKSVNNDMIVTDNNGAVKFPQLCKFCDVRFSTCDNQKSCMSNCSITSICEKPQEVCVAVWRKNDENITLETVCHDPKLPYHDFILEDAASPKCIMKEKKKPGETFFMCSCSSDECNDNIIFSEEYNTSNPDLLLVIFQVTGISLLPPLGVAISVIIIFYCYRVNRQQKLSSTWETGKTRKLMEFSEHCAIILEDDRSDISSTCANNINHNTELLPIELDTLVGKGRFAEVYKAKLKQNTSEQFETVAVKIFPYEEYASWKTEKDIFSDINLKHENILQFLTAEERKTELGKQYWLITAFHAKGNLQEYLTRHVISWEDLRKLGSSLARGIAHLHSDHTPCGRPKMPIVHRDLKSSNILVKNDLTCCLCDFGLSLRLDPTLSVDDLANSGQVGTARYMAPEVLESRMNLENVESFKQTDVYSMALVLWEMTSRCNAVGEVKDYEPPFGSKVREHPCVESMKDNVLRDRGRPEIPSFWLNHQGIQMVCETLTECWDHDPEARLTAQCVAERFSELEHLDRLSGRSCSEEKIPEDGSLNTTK
Assay [4] addresses Maternal embryonic leucine zipper kinase (Homo sapiens) (UniProt Q14680). In words: Inhibition of human MELK using KKLNRTLSFAEPG as substrate at 1 uM in presence of 32P-ATP by Hotspot assay relative to control; values are per cent of control.
Assay [5] addresses Mitogen-activated protein kinase 8 (Homo sapiens) (UniProt P45983). In words: Inhibition of human JNK1 using ATF2 as substrate at 1 uM in presence of 32P-ATP by Hotspot assay relative to control; values are per cent of control.
Assay [6] has as its target Receptor tyrosine-protein kinase erbB-4 (Homo sapiens) (UniProt Q15303). Put plainly: Inhibition of human ERBB4/HER4 using poly[Glu:Tyr] (4:1) as substrate at 1 uM in presence of 32P-ATP by Hotspot assay relative to control; values are per cent of control.
In assay [7] the target is Proto-oncogene tyrosine-protein kinase receptor Ret (Homo sapiens) (UniProt P07949). Put plainly: Inhibition of human RET using RRRRRRRRRRRVYSTDYYRLFNPS as substrate at 1 uM in presence of 32P-ATP by Hotspot assay relative to control.
Sequence of Proto-oncogene tyrosine-protein kinase receptor Ret (Homo sapiens) (P07949 whole entry): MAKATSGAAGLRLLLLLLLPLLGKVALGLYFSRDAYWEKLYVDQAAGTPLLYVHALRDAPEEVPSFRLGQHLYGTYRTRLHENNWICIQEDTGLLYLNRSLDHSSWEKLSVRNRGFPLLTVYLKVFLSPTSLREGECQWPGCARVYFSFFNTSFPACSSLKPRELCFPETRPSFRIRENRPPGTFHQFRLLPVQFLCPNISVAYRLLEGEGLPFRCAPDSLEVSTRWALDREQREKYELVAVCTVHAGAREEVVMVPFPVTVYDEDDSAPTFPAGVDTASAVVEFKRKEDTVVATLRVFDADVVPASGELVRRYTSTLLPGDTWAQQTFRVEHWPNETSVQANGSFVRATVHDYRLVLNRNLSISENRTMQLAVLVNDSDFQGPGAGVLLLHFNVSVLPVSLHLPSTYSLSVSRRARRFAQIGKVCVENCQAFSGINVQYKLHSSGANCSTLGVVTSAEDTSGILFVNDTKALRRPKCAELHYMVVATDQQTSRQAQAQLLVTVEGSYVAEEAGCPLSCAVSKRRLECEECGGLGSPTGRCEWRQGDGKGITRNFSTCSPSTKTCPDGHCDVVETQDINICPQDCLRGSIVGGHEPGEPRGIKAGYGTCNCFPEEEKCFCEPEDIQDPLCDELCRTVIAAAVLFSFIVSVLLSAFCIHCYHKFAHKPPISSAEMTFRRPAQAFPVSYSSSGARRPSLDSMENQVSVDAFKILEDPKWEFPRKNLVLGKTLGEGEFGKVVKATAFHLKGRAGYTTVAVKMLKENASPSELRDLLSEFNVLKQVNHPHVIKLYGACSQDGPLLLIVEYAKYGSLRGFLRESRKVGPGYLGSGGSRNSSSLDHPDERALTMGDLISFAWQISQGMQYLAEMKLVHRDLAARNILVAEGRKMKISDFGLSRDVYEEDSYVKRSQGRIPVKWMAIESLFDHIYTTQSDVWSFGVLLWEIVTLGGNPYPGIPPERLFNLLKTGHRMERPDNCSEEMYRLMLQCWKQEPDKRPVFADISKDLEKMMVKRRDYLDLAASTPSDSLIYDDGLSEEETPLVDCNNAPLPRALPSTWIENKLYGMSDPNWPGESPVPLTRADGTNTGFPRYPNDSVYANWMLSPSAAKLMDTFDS
Assay [8] deals with Tyrosine-protein kinase FRK (Homo sapiens) (UniProt P42685). In words: Inhibition of human FRK/PTK5 using poly[Glu:Tyr] (4:1) as substrate at 1 uM in presence of 32P-ATP by Hotspot assay relative to control; values are per cent of control.
Sequence of Tyrosine-protein kinase FRK (Homo sapiens) (P42685 whole entry): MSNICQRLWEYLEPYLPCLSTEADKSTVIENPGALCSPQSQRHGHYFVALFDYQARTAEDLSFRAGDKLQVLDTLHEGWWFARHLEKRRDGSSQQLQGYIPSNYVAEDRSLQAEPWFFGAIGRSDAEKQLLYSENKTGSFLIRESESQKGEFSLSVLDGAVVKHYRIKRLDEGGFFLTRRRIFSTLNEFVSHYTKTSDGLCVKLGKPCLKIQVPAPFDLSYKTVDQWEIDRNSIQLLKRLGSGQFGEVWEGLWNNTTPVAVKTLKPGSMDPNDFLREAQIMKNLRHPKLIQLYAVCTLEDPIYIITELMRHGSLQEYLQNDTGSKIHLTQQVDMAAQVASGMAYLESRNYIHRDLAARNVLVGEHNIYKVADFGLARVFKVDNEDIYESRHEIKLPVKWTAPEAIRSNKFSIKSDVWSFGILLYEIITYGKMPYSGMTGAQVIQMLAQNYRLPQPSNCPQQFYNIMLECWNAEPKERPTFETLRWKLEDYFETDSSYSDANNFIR
The target in assay [9] is Homeodomain-interacting protein kinase 1 (Homo sapiens) (UniProt Q86Z02). In words: Inhibition of human HIPK1 using myelin basic protein as substrate at 1 uM in presence of 32P-ATP by Hotspot assay relative to control; values are per cent of control.
Assay [10] concerns the target Mitogen-activated protein kinase 3 (Homo sapiens) (UniProt P27361). Put plainly: Inhibition of human ERK1 using myelin basic protein as substrate at 1 uM in presence of 32P-ATP by Hotspot assay relative to control; values are per cent of control.
In assay [11] the target is Insulin receptor (Homo sapiens) (UniProt P06213). In words: Inhibition of human IR using poly[Glu:Tyr] (4:1) as substrate at 1 uM in presence of 32P-ATP by Hotspot assay relative to control; values are per cent of control.
The target of assay [12] is T2, Phosphorylase b kinase gamma catalytic chain, liver/testis isoform (Homo sapiens) (UniProt P15735).
T2 sequence (whole entry): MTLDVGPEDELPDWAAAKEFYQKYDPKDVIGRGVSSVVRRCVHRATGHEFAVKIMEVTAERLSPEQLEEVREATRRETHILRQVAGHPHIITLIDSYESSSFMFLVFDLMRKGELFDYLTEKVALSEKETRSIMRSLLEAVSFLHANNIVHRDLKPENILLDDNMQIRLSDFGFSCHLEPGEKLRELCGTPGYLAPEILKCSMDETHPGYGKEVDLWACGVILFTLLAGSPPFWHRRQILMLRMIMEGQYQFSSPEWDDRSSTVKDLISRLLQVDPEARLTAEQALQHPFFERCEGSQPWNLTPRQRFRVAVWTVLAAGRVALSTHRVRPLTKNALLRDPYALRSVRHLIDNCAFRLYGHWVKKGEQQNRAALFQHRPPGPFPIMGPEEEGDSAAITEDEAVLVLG
In words: Inhibition of human PHKg2 using KKLNRTLSFAEPG as substrate at 1 uM in presence of 32P-ATP by Hotspot assay relative to control; values are per cent of control.

Assay [13] deals with Protein-tyrosine kinase 2-beta (Homo sapiens) (UniProt Q14289). In words: Inhibition of human PYK2 using poly[Glu:Tyr] (4:1) as substrate at 1 uM in presence of 32P-ATP by Hotspot assay relative to control; values are per cent of control.
Sequence of Protein-tyrosine kinase 2-beta (Homo sapiens) (Q14289 whole entry, looked up): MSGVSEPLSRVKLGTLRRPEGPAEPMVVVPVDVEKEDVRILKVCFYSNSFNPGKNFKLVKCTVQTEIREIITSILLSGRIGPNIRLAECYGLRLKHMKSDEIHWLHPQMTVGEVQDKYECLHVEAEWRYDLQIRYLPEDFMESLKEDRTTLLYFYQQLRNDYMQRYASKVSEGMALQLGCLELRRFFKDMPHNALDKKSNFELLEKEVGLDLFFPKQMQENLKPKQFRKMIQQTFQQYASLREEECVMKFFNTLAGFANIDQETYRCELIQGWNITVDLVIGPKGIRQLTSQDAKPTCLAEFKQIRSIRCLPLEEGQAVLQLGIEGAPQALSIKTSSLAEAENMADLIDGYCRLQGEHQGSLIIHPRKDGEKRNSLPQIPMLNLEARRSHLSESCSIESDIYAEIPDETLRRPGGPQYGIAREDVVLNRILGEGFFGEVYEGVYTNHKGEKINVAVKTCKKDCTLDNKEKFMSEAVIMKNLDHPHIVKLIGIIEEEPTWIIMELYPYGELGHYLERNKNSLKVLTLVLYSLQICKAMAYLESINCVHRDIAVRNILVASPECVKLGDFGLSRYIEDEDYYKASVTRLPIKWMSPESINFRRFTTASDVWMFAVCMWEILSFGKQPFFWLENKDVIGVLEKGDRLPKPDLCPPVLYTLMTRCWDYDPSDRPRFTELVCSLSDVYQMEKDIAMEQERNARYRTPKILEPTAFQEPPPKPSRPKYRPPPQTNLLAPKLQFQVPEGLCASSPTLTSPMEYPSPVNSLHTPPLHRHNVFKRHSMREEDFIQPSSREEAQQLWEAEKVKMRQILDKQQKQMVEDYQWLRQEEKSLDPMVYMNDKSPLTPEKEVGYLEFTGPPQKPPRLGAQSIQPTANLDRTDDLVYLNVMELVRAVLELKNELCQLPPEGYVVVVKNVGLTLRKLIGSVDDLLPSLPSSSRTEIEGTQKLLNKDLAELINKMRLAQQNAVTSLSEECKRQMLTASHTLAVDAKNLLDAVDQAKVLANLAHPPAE
Assay [14] has as its target CDK6/cyclin D3 (Homo sapiens) (UniProt P30281+Q00534). Put plainly: Inhibition of human CDK6/cyclin D3 using RB Protein as substrate at 1 uM in presence of 32P-ATP by Hotspot assay relative to control; values are per cent of control.
Assay [15] addresses Cyclin-dependent kinase 2/cyclin E1 (Homo sapiens) (UniProt P24864+P24941). In words: Inhibition of human CDK2/cyclin E using RB Protein as substrate at 1 uM in presence of 32P-ATP by Hotspot assay relative to control; values are per cent of control.
Assay [16] deals with Phosphorylase b kinase gamma catalytic chain, skeletal muscle/heart isoform (Homo sapiens) (UniProt Q16816). Put plainly: Inhibition of human PHKg1 using KKLNRTLSFAEPG as substrate at 1 uM in presence of 32P-ATP by Hotspot assay relative to control; values are per cent of control.
Sequence of Phosphorylase b kinase gamma catalytic chain, skeletal muscle/heart isoform (Homo sapiens) (Q16816 whole entry, looked up, the tested form may be a part, canonical isoform): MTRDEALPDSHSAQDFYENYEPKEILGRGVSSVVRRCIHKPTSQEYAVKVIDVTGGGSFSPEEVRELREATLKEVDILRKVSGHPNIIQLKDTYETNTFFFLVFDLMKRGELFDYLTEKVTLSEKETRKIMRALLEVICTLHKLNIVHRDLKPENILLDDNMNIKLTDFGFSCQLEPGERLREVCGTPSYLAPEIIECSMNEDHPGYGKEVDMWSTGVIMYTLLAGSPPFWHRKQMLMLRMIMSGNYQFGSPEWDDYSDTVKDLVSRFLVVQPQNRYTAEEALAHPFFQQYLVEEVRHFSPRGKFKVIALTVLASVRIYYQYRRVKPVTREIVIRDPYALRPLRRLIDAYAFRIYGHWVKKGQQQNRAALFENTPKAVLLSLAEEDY
For assay [17], the target named is PAS domain-containing serine/threonine-protein kinase (Homo sapiens) (UniProt Q96RG2). In words: Inhibition of human PASK using KKLNRTLSFAEPG as substrate at 1 uM in presence of 32P-ATP by Hotspot assay relative to control; values are per cent of control.

Sequence of Mitogen-activated protein kinase 3 (Homo sapiens) (P27361 whole entry): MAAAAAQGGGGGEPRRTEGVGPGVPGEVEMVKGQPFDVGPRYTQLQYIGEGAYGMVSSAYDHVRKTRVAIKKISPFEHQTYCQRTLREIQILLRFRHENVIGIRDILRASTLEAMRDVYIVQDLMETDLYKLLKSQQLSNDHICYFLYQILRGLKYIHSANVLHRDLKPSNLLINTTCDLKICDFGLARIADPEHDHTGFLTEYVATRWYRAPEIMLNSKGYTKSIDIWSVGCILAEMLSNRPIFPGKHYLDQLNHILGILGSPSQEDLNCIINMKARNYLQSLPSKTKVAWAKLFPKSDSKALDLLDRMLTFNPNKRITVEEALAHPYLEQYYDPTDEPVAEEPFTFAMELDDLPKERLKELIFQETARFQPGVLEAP
Sequence of Maternal embryonic leucine zipper kinase (Homo sapiens) (Q14680 whole entry, looked up): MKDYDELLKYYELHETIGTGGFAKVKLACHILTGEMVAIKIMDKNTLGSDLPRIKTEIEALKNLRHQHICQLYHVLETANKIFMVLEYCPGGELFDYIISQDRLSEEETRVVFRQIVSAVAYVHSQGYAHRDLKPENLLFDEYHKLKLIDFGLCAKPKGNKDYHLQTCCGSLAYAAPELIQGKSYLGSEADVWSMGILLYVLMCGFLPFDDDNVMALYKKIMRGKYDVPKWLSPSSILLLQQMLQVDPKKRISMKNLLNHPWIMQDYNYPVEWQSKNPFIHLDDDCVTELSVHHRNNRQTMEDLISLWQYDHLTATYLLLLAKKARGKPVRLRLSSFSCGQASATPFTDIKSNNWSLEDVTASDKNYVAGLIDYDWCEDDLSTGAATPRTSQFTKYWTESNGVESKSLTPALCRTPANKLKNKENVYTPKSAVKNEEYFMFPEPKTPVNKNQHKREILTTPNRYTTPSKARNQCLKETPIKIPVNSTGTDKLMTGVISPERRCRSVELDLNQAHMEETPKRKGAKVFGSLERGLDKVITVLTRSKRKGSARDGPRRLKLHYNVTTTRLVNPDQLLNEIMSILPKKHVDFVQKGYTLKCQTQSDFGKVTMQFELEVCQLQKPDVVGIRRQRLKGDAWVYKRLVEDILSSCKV
Sequence of Mitogen-activated protein kinase 8 (Homo sapiens) (P45983 whole entry): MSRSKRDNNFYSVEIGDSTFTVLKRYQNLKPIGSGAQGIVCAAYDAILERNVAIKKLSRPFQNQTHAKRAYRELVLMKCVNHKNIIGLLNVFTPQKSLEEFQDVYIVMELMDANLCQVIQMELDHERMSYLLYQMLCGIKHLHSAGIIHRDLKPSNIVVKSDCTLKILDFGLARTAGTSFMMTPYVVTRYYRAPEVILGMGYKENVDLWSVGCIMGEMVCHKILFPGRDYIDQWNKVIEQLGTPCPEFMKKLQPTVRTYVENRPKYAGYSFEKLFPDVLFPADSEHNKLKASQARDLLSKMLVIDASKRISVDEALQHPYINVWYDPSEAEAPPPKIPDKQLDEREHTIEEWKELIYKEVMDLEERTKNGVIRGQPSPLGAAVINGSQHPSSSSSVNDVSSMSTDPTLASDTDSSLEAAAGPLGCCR

A word on the inhibition: it is the relative decrease from the control value, in per cent. Turning to `CNC(=O)c1ccc2c(c1)ncn2-c1ccc(CC(=O)OC(C)(C)C)cc1`, the residual activity in assay [1] was found to be 95.5%; in assay [2], 97.3%; in assay [3], 73.3%; in assay [4], 105%; in assay [5], 103%; in assay [6] it was 93.8%. Moreover, the residual activity in assay [8] stood at 90.8%; in assay [9], 87.5%; in assay [10] it was 94.7%; in assay [11], 90%; in assay [12] it was 100%; in assay [13], 96.4%. For the same compound, the residual activity was 51.5% in assay [14], 104% in assay [15], 101% in assay [16] and 99.8% in assay [17]. Also, the inhibition in assay [7] stood at 92.2%.
Consider `Cc1cc(-c2cnc(N)c3c(-c4ccc5scnc5c4)csc23)n(C)n1`, for which the residual activity in assay [1] is 91.3%; in assay [2], 74.3%; in assay [3] it was 35.2%; in assay [4], 88.2%; in [5], 91.6%; in [6], 98.4%. In addition, the residual activity in [8] was determined as 65.3%; in assay [9], 102%; in assay [10] it was 93.3%; in [11], 101%; in assay [12], 95.4%; in assay [13], 105%. The residual activity in assay [14] was determined as 89.6%; in assay [15], 94.8%; in [16], 96.8%; in assay [17], 93.1%. In addition, the inhibition in assay [7] amounted to 30%.
Consider `CC(C)S(=O)(=O)c1ccc2nccc(Nc3ccc4scnc4c3)c2c1`, for which the residual activity is 88.3% in assay [1]; 80.1% in [2]; 101% in assay [3]; 96.5% in assay [4]; 96.8% in assay [5]; 89.3% in [6]. For the same compound, the residual activity came to 33.5% in [8]; 88.3% in [9]; 89.9% in assay [10]; 90.4% in assay [11]; 98.2% in [12]; 95.5% in assay [13]. The residual activity is 88.3% in assay [14], 87.7% in assay [15], 94.8% in assay [16] and 96.5% in assay [17]. Besides, the inhibition in assay [7] turned out to be 48.1%.

The record behind these values is ChEMBL document CHEMBL5649166, “RIP3 induces apoptosis independent of pronecrotic kinase activity” (Mol Cell, 2014).
